Patent US10538491B2, “4,5-substituted picolinamide and picolinonitrile metabotropic glutamate receptor 2 negative allosteric modulators” (Vanderbilt University, priority 2015, dated 2020)

Molecular target: rat mGlu2 (Rattus norvegicus (Rat), UniProt P31421)
Assay: mGlu2 Ca2+ flux assay
Type: cell-based
Settings: for IC50: Gα15 HEK293 cells stably expressing rat mGlu2, glutamate EC80, >10,000 = no plateau, >30,000 = no measurable activity; for remaining activity at 30 µM: read-out: rat mGlu2 Glu max
Description: Gα15 HEK293 cells stably expressing rat mGlu2 were plated in black-walled, clear-bottomed, poly-D-lysine coated 384-well plates in 20 μL of assay medium (DMEM containing 10% dialyzed FBS, 20 mM HEPES, and 1 mM sodium pyruvate) at a density of 12K cells/well. The cells were grown overnight at 37° C. in the presence of 5% CO2. The next day, medium was removed and the cells incubated with 20 μL of 2.3 μM Fluo-4, AM prepared as a 2.3 mM stock in DMSO and mixed in a 1:1 ratio with 10% (w/v) pluronic acid F-127 and diluted in assay buffer (Hank's balanced salt solution, 20 mM HEPES, and 2.5 mM probenecid) for 45 minutes at 37° C. Dye was removed, 20 μL of assay buffer was added, and the plate was incubated for 5 minutes at room temperature.
Ca^2+ flux was measured using the Functional Drug Screening System (FDSS7000, Hamamatsu, Japan). After establishment of a fluorescence baseline for about 3 seconds, the compounds of the present invention were added to the cells, and the response in cells was measured. 2.3 minutes later an EC20 concentration of the mGlu2 receptor agonist glutamate was added to the cells, and the response of the cells was measured for 1.9 minutes; an EC80 concentration of agonist was added and readings taken for an additional 1.7 minutes. All test compounds were dissolved and diluted to a concentration of 10 mM in 100% DMSO. Compounds were then serially diluted 1:3 in DMSO into 10 point concentration response curves, transferred to daughter plates, and further diluted into assay buffer to a 2× stock. Calcium fluorescence measures were recorded as fold over basal fluorescence; raw data was then normalized to the maximal response to glutamate. Antagonism of the agonist response of the mGlu2 receptor in the present invention was observed as a decrease in response to nearly maximal concentrations of glutamate in the presence of compound compared to the response to glutamate in the absence of compound.
The raw data file containing all time points was used as the data source in the analysis template. This was saved by the FDSS as a tab-delimited text file. Data were normalized using a static ratio function (F/F0) for each measurement of the total 360 values per well divided by each well's initial value. Data were then reduced to peak amplitudes (Max−Initial Min) using a time range that starts approximately 3 seconds prior to the glutamate EC80 addition and continues for approximately 90 seconds. This is sufficient time to capture the peak amplitude of the cellular calcium response. Individual amplitudes were expressed as % ECMax by multiplying each amplitude by 100 and then dividing the product by the mean of the amplitudes derived from the glutamate ECMax-treated wells. IC50 values for test compounds were generated by fitting the normalized values versus the log of the test compound concentration (in mol/L) using a 4 parameter logistic equation where none of the parameters were fixed. Each of the three values collected at each concentration of test compound were weighted evenly.
For NAMs, potency (IC50) and maximum response (% Glu Max), i.e. the amplitude of response in the presence of 30 μM test compound as a percentage of the maximal response to glutamate, are reported. […] Compounds with no measurable activity are designated as “>30,000 nM” since the top concentration of compound tested in the assay is 30 μM.

[1] = amplitude of response in the presence of 30 μM test compound as percentage of maximal response to glutamate

Chain of rat mGlu2 (P31421 19-872): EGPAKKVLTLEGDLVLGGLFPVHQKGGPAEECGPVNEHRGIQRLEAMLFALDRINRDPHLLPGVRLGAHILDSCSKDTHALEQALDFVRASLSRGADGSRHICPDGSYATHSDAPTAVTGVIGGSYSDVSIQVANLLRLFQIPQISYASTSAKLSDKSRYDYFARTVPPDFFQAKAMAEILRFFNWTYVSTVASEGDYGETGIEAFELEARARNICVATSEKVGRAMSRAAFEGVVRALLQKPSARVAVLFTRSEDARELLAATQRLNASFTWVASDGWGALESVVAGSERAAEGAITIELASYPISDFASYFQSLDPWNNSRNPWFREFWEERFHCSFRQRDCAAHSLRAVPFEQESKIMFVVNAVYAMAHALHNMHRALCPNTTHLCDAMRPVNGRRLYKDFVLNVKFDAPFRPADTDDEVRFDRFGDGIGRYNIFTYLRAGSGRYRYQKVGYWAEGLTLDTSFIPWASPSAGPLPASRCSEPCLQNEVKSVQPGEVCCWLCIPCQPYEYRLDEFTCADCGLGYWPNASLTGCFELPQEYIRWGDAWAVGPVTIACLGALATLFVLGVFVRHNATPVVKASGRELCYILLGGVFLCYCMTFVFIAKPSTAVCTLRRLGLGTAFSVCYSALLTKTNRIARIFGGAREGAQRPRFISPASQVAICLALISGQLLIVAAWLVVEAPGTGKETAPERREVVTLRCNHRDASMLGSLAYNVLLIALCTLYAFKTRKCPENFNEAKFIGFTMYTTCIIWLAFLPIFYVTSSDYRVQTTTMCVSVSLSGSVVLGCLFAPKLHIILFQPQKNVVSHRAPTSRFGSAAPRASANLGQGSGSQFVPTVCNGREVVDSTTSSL

IC50 [µM] | remaining activity at 30 µM [1] [%] | rat mGlu2 Glu max [1] [%] | Compound
> 30 |  |  | C[C@@H]1CN(CCOc2cnc(C#N)cc2-c2ccc(F)cc2)C[C@H](C)O1 [Compound 70, 5-(2-((cis)-2,6-Dimethylmorpholino)ethoxy)-4-(4-fluorophenyl)picolinonitrile]
> 30 |  |  | N#Cc1cc(-c2ccc(F)cc2)c(OCCCN2CCOCC2)cn1 [Compound 71, 4-(4-fluorophenyl)-5-(3-morpholinopropoxy)picolinonitrile]
> 30 |  |  | CC1CN(CCCOc2cnc(C#N)cc2-c2ccc(F)cc2)CCO1 (centres unmarked) [Compound 72, 4-(4-fluorophenyl)-5-(3-(2-methylmorpholino)propoxy)picolinonitrile]
> 30 |  |  | CC1(C)CN(CCCOc2cnc(C#N)cc2-c2ccc(F)cc2)CCO1 [Compound 73, 5-(3-(2,2-dimethylmorpholino)propoxy)-4-(4-fluorophenyl)picolinonitrile]
> 10 | 49.6 |  | N#Cc1cc(-c2ccc(F)cc2)c(OCCCN2CCC(F)(F)CC2)cn1 [Compound 74, 5-(3-(4,4-difluoropiperidin-1-yl)propoxy)-4-(4-fluorophenyl)picolinonitrile]
> 10 | 30.2 |  | Cc1ncc(OCCOc2cnc(C#N)cc2-c2ccc(F)cc2)cn1 [Compound 75, 4-(4-Fluorophenyl)-5-(2-((2-methylpyrimidin-5-yl)oxy)ethoxy)picolinonitrile]
> 10 | 33.3 |  | CN(CCOCc1cncc(F)c1)c1cnc(C#N)cc1-c1ccc(F)cc1 [Compound 76, 4-(4-Fluorophenyl)-5-((2-((5-fluoropyridin-3-yl)methoxy)ethyl)(methyl)amino)picolinonitrile]
> 30 | 35.1 |  | NC(=O)c1cc(-c2ccc(F)cc2)c(N2CCC(Oc3ccc(C(F)(F)F)nc3)CC2)cn1 [Compound 77, 4-(4-Fluorophenyl)-5-(4-((6-(trifluoromethyl)pyridin-3-yl)oxy)piperidin-1-yl)picolinamide]
0.531 | -0.32 |  | CC1(C)CN(Cc2cnc(C(N)=O)cc2-c2ccc(F)cc2)CCO1 [Compound 78, 5-((2,2-dimethylmorpholino)methyl)-4-(4-fluorophenyl)picolinamide]
0.987 | 0.52 |  | C[C@@H]1CN(Cc2cnc(C(N)=O)cc2-c2ccc(F)cc2)C[C@H](C)O1 [Compound 79, 5-(((cis)-2,6-dimethylmorpholino)methyl)-4-(4-fluorophenyl)picolinamide]
4.13 | -0.09 |  | Cn1cc(-c2cc(C(N)=O)ncc2OCc2cc(F)cc(F)c2)cn1 [Compound 80, 5-((3,5-difluorobenzyl)oxy)-4-(1-methyl-1H-pyrazol-4-yl)picolinamide]
1.53 | 2.19 |  | NC(=O)c1cc(-c2ccc(F)cc2)c(OCc2cccc(Br)c2F)cn1 [Compound 81, 5-((3-bromo-2-fluorobenzyl)oxy)-4-(4-fluorophenyl)picolinamide]
> 30 |  |  | Cn1cc(-c2cc(C(N)=O)ncc2OCc2cccnc2)cn1 [Compound 82, 4-(1-methyl-1H-pyrazol-4-yl)-5-(pyridin-3-ylmethoxy)picolinamide]
0.216 | 1 |  | COc1ccc(-c2cc(C(N)=O)ncc2OCc2ccc(C)nc2)c(F)c1 [Compound 83, 4-(2-fluoro-4-methoxyphenyl)-5-((6-methylpyridin-3-yl)methoxy)picolinamide]
> 30 |  |  | Cc1ccc(COc2cnc(C(N)=O)cc2-c2ccc(C(F)(F)F)nc2)cn1 [Compound 84, 5′-((6-methylpyridin-3-yl)methoxy)-6-(trifluoromethyl)-[3,4′-bipyridine]-2′-carboxamide]
> 10 | 46.7 |  | Cc1ccc(COc2cnc(C(N)=O)cc2-c2cnn(C)c2)cn1 [Compound 85, 4-(1-methyl-1H-pyrazol-4-yl)-5-((6-methylpyridin-3-yl)methoxy)picolinamide]

IC50 [µM] | remaining activity at 30 µM [1] [%] | rat mGlu2 Glu max [1] [%] | Compound
0.44 | 1.16 |  | COc1ccc(-c2cc(C(N)=O)ncc2OCc2ccc(C(F)(F)F)nc2)c(F)c1 [Compound 86, 4-(2-fluoro-4-methoxyphenyl)-5-((6-(trifluoromethyl)pyridin-3-yl)methoxy)picolinamide]
> 10 |  | 29.69 | Cn1cc(-c2cc(C(N)=O)ncc2OCc2ccc(C(F)(F)F)nc2)cn1 [Compound 87, 4-(1-methyl-1H-pyrazol-4-y1)-5-((6-(trifluoromethyl)pyridin-3-yl)methoxy)picolinamide]
0.029 ± 0.005 | 1.65 ± 0.23 |  | COc1ccc(-c2cc(C(N)=O)ncc2OCc2ccnc(C)c2)c(F)c1 [Compound 88, 4-(2-fluoro-4-methoxyphenyl)-5-((2-methylpyridin-4-yl)methoxy)picolinamide]
> 10 | 30.7 |  | Cc1cc(COc2cnc(C(N)=O)cc2-c2cnn(C)c2)ccn1 [Compound 89, 4-(1-methyl-1H-pyrazol-4-yl)-5-((2-methylpyridin-4-yl)methoxy)picolinamide]
2.03 | 0.21 |  | NC(=O)c1cc(-c2ccc(F)cc2)c(COc2cc(F)cc(F)c2)cn1 [Compound 90, 5-((3,5-difluorophenoxy)methyl)-4-(4-fluorophenyl)picolinamide]
0.639 | 0.51 |  | NC(=O)c1cc(-c2ccc(F)cc2)c(COc2ccc(C(F)(F)F)nc2)cn1 [Compound 91, 4-(4-fluorophenyl)-5-(((6-(trifluoromethyl)pyridin-3-yl)oxy)methyl)picolinamide]
1.66 | -2.16 |  | Cc1ccc(OCc2cnc(C(N)=O)cc2-c2ccc(F)cc2)cn1 [Compound 92, 4-(4-fluorophenyl)-5-(((6-methylpyridin-3-yl)oxy)methyl)picolinamide]
0.477 | 0.38 |  | NC(=O)c1cc(-c2ccc(F)cc2)c(COc2ccnc(C(F)(F)F)c2)cn1 [Compound 93, 4-(4-fluorophenyl)-5-(((2-(trifluoromethyl)pyridin-4-yl)oxy)methyl)picolinamide]
> 10 | 49 |  | NC(=O)c1cc(-c2ccc(F)cc2)c(OCCN2CCOCC2)cn1 [Compound 94, 4-(4-fluorophenyl)-5-(2-morpholinoethoxy)picolinamide]
> 10 | 22.8 |  | C[C@@H]1CN(CCOc2cnc(C(N)=O)cc2-c2ccc(F)cc2)C[C@H](C)O1 [Compound 95, 5-(2-((cis)-2,6-dimethylmorpholino)ethoxy)-4-(4-fluorophenyl)picolinamide]
3.27 | 7.38 |  | NC(=O)c1cc(-c2ccc(F)cc2)c(OCCCN2CCC(F)(F)CC2)cn1 [Compound 96, 5-(3-(4,4-difluoropiperidin-1-yl)propoxy)-4-(4-fluorophenyl)picolinamide]
> 10 | 22 |  | CC1CN(CCCOc2cnc(C(N)=O)cc2-c2ccc(F)cc2)CCO1 (centres unmarked) [Compound 97, 4-(4-fluorophenyl)-5-(3-(2-methylmorpholino)propoxy)picolinamide]
3.25 | 0.97 |  | CC1(C)CN(CCCOc2cnc(C(N)=O)cc2-c2ccc(F)cc2)CCO1 [Compound 98, 5-(3-(2,2-dimethylmorpholino)propoxy)-4-(4-fluorophenyl)picolinamide]
> 10 | 15.8 |  | C[C@@H]1CN(CCCOc2cnc(C(N)=O)cc2-c2ccc(F)cc2)C[C@H](C)O1 [Compound 99, 5-(3-((cis)-2,6-dimethylmorpholino)propoxy)-4-(4-fluorophenyl)picolinamide]
> 10 | 46.8 |  | NC(=O)c1cc(-c2ccc(F)cc2)c(OCCCN2CCOCC2)cn1 [Compound 100, 4-(4-fluorophenyl)-5-(3-morpholinopropoxy)picolinamide]
